This passage reports IC50 results from patent US11021481B2, “Substituted isoindolin-1-ones and 2,3-dihydro-1h-pyrrolo[3,4-c]pyridin-1-ones as HPK1 antagonists” (Nimbus Saturn, Inc., priority 2019, dated 2021).

One may read the IC50 as the concentration that inhibits the measured activity by half.

Chain of HPK1 (Q92918 whole entry): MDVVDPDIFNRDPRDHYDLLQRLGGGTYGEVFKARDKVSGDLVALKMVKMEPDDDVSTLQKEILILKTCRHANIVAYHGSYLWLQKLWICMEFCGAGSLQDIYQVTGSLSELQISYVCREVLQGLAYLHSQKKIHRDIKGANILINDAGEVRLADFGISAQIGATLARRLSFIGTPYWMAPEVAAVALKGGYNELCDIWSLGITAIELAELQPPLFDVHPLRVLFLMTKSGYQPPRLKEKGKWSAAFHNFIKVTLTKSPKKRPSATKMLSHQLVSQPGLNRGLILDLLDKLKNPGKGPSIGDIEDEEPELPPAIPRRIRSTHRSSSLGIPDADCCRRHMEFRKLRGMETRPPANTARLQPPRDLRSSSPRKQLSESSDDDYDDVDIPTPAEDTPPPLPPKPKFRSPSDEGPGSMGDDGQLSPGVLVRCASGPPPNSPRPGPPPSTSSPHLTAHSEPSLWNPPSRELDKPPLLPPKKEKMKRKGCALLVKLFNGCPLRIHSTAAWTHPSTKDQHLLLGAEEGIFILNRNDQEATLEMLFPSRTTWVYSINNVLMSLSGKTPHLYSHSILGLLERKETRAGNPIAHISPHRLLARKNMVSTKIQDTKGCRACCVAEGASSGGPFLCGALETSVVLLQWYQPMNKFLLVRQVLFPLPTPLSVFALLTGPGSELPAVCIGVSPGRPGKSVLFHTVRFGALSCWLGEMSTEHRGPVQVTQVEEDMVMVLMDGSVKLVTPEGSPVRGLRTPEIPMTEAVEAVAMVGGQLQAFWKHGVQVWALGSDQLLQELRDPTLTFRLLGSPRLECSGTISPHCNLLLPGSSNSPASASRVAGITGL

The target of this experiment is HPK1 (Homo sapiens (Human), UniProt Q92918). As to the kind of experiment: HPK1 biochemical enzyme assay (microfluidic mobility shift assay). The note with it: 1.5 nM HPK1, ATP 1 mM final, 30 min preincubation, 60 min at RT, Caliper EZ Reader; read-out: HPK1 1000UMATP caliper IC50. On the procedure:
HPK1 biochemical enzyme assay: HPK1 enzyme inhibition was measured using a microfluidic mobility shift assay. […] Test compounds were titrated in ten point curves (top final assay concentration 3 μM), and preincubated with enzyme/substrate mix for 30 min prior to initiation of the reaction by addition of ATP (1 mM final concentration) and substrate (1 μM final concentration; Carna Biosciences) diluted in assay buffer supplemented by MgCl2 (final assay concentration of 5 mM). Following 60 min incubation at RT, the reaction was terminated by addition of 60 µl/well termination buffer (Carna Biosciences) and signal determination using aCaliper EZ Reader (Perkin Elmer, UK).
The compound numbers correspond to the compound numbers in Table 1.
In the case of `CN(CCO)Cc1nc(Nc2ccc(-c3cnc4cc(F)ccn34)c3c2C(=O)NC3)ccc1C1CCOC1` (stereo in doubt) [I-734, (R)-4-(7-fluoroimidazo [1,2-a]pyridin-3-yl)-7-((6-(((2-hydroxyethy (methyl)amino)methyl)-5-(tetrahydrofuran-3-yl)pyridin-2-yl)amino)isoin-dolin-1-one], the IC50 is less than 100 nM.
Under `O=C1NCc2c(-c3cnc4cc(F)ccn34)ccc(Nc3cccc(N4CC[C@@H]5CNC[C@@H]54)n3)c21` [I-498, 4-(7-fluoroimidazo [1,2-a]pyridin-3-yl)-7-((6-((3aR,6aR)-hexahydropy-rrolo[3,4-b]pyrrol-1(2H)-yl)pyridin-2-yl)amino)isoin-dolin-1-one] stands less than 100 nM.
Turning to `O=C1NCc2c(-c3cnc4ccccn34)ncc(Nc3ccc(N4CCNCC4)cn3)c21` [I-63, 4-imidazo[1,2-a]pyridin-3-yl-7-[(5-piperazin-1-yl-2-pyridyl)amino]-2,3-dihydropyrrolo [3,4-c]pyridin-1-one], the IC50 was less than 100 nM.
Turning to `CN1CCN(c2ccc(Nc3ccc(-c4ccnc5c4CCN5)c4c3C(=O)NC4)nc2)CC1` [I-68, 4-(2,3-dihydro-1H-pyrrolo[2,3-b]pyridin-4-yl)-7-[[5-(4-methylpiperazin-1-yl)-2-pyridyl]amino] isoindolin-1-one], the IC50 was less than 100 nM.
Under `Cc1ccn2c(-c3ccc(Nc4ccc(CN5CCN(C)CC5)cn4)c4c3CNC4=O)cnc2c1F` [I-605, 4-(8-fluoro-7-methylimidazo [1,2-a]pyridin-3-yl)-7-((5-((4-methylpiperazin-1-yl)methyl)pyri-din-2-yl)amino)isoin-dolin-1-one] stands less than 100 nM; under `N#Cc1ccn2c(-c3ccc(Nc4ccc(N5CCC(O)CC5)cn4)c4c3CNC4=O)cnc2c1F` [I-188, 8-fluoro-3-[7-[[5-(4-hydroxy-1-piperidyl)-2-pyridyl]amino]-1-oxo-isoindolin-4-yl]imidazo[1,2-a]pyridine-7-carbonitrile], less than 100 nM.
To `O=C1NCc2c(-c3cnc4cc(F)ccn34)ccc(Nc3ccc([C@@H]4CCOC4)c(CN4CC[C@H](F)C4)n3)c21` (stereo in doubt) [I-736] belongs less than 100 nM; to `O=C1NCc2c(-c3cnc4cc(F)ccn34)ccc(Nc3ccc(N4CCC[C@]5(CNCCO5)C4)cn3)c21` [I-508, (S)-7-((5-(1-oxa-4.8-diazaspiro[5.5]undecan-8-yl)pyridin-2-yl)amino)-4-(7-fluoroimidazo [1,2-a]pyridin-3-yl)isoindolin-1-one], less than 100 nM; to `O=C1NCc2c(-c3cnc4cc(F)ccn34)ccc(Nc3ccc(N4CCO[C@H](CNC5CC5)C4)cn3)c21` [I-477, 7-[[5-[(2R)-2-[(cyclopropylamino)methyl]morpholin-4-yl]-2-pyridyl]amino]-4-(7-fluoroimidazo [1,2-a]pyridin-3-yl)isoindolin-1-one], less than 100 nM.
To `Cc1cccn2c(-c3ncc(Nc4ccc(N5CCC[C@H](C(C)(C)O)C5)cn4)c4c3CNC4=O)cnc12` [I-241, 7-[[5-[(3S)-3-(1-hydroxy-1-methyl-ethyl)-1-piperidyl]-2-pyridyl]-amino]-4-(8-methylimidazo [1,2-a]pyridin-3-yl)-2,3-dihydropyrrolo [3,4-c]pyridin-1-one] belongs less than 100 nM.
Take `Cc1ccn2c(-c3ncc(Nc4ccc(N5CCC(O)CC5)cn4)c4c3CNC4=O)cnc2c1` [I-154, 7-[[5-(4-hydroxy-1-piperidyl)-2-pyridyl]amino]-4-(7-methylimidazo [1,2-a]pyridin-3-yl)-2,3-dihydropyrrolo [3,4-c]pyridin-1-one]: the IC50 is less than 100 nM.
Under `CC(C)(O)[C@H]1CCCN(c2ccc(Nc3ccc(-c4cnc5cnccn45)c4c3C(=O)NC4)nc2)C1` [I-310, (S)-7-((5-(3-(2-hydroxypropan-2-yl)piperidin-1-yl)pyridin-2-yl)amino)-4-(imidazo[1,2-a]pyrazin-3-yl)isoindolin-1-one] stands less than 100 nM.
Under `O=C1NCc2c(-c3cnc4cc(F)ccn34)ccc(Nc3ccc(N4CCO[C@H](C5(O)CC5)C4)cn3)c21` (single isomer, unassigned) [I-662] stands less than 100 nM.
Under `O=C1NCc2c(-c3cnc4cc(F)ccn34)ccc(Nc3ccc([C@@H]4CCOC4)c(CNCC(F)F)n3)c21` (single isomer, unassigned) [I-740] stands less than 100 nM; under `C[C@@H]1CC[C@](C)(O)CN1c1ccc(Nc2ccc(-c3cnn4c3CCCC4)c3c2C(=O)NC3)nc1` (stereo in doubt) [I-597, 7-((5-((2S,5S)-5-hydroxy-2,5-dimethyl-piperidin-1-yl)pyridin-2-yl)amino)-4-(4,5,6,7-tetrahydropyra-zolo[1,5-a]pyridin-3-yl)isoindolin-1-one], less than 100 nM; under `COc1ccc2c(-c3ncc(Nc4ccc(N5CCN(C)CC5)cn4)c4c3CNC4=O)c[nH]c2c1` [I-4, 4-(6-methoxy-1H-indol-3-yl)-7-[[5-(4-methylpiperazin-1-yl)-2-pyridyl]amino]-2,3-dihydropyrrolo [3,4-c]pyridin-1-one], 100 to 1000 nM.
As for `CN(Cc1nc(Nc2ccc(-c3cnc4cc(F)ccn34)c3c2C(=O)NC3)ccc1[C@H]1CCOC1)CC(F)F` (single isomer, unassigned) [I-748], the IC50 is less than 100 nM.
Under `Cc1ncc2c(-c3ccc(Nc4ccc(N5CCC(O)CC5)cn4)c4c3CNC4=O)cccn12` [I-180, 7-[[5-(4-hydroxy-1-piperidyl)-2-pyridyl]amino]-4-(3-methyliminidazo [1.5-a]pyridin-8-yl)isoindolin-1-one] stands 100 to 1000 nM; under `COc1cc(Nc2cnc(-c3ccnc4c3ccn4C)c3c2C(=O)NC3)nc(N2CC[C@@H]3CNC[C@@H]32)c1` [I-682, 7-((6-((3aR,6aR)-hexahydro-pyrrolo[3,4-b]pyrrol-l(2H)-yl)-4-methoxypyridin-2-yl)amino)-4-(1-methyl-1H-pyrrolo[2,3-b]pyridin-4-yl)-2,3-dihydro-1H-pyrrolo[3,4-c]pyridin-1-one], 100 to 1000 nM.
In the case of `Cc1csc2c(-c3ncc(Nc4ccc(N5CCC(O)CC5)cn4)c4c3CNC4=O)ccnc12` [I-373, 7-((5-(4-hydroxypiperidin-1-yl)pyridin-2-yl)amino)-4-(3-methylthieno [3,2-b]pyridin-7-yl)-2,3-dihydro-1H-pyrrolo[3,4-c]pyridin-1-one], the IC50 is less than 100 nM.
To `O=C1NCc2c(-c3cnc4cnccn34)ccc(Nc3ccc(N4CC5(COC5)C4)cn3)c21` [I-312, 7-((5-(2-oxa-6-azaspiro[3,3]heptan-6-yl)pyridin-2-yl)amino)-4-(imidazo[1,2-a]pyrazin-3-yl)isoindolin-1-one] belongs less than 100 nM; to “(R)-7-((5-(4-hydroxypiperidin-1-yl)pyridin-2-yl)amino)-3-methyl-4-(1-methyl-1H-pyrrolo[2,3-b]pyridin-4-yl)isoindolin-1-one [I-287]”, less than 100 nM.
To `CN(CC1(O)CCCN(c2ccc(Nc3ccc(-c4cnc5cc(F)ccn45)c4c3C(=O)NC4)nc2)C1)C1CC1` (stereo not shown) [I-491, 7-[[5-[3-[[cyclopropyl (methyl)amino]methyl]-3-hydroxy-1-piperidyl]-2-pyridyl]amino] 4-(7-fluoroimidazo [1,2-a]pyridin-3-yl)isoindolin-1-one] belongs less than 100 nM.
Under `Cc1cccn2c(-c3ccc(Nc4ccc(N5CCC(O)CC5)cn4)c4c3CNC4=O)cnc12` [I-135, 7-[[5-(4-hydroxy-1-piperidyl)-2-pyridyl]amino]-4-(8-methylimidazo [1,2-a]pyridin-3-yl)isoindolin-1-one] stands less than 100 nM.
As for `CN1CCN(c2ccc(Nc3cnc(-c4c(F)cnc5c4ccn5C)c4c3C(=O)NC4)nc2)CC1` [I-128], the half-inhibitory concentration (IC50) was less than 100 nM.
Consider `COCC1(c2ccc(Nc3ccc(-c4cnc5cc(F)ccn45)c4c3C(=O)NC4)nc2CN(C)C)CCOC1` (stereo not shown) [I-837, 7-((6-((dimethylamino)methyl)-5-(3-(methoxymethyl)tetrahydrofuran-3-yl)pyridin-2-yl)amino)-4-(7-fluoroimidazo[1,2-a]pyridin-3-yl)isoindolin-1-one], for which the IC50 is less than 100 nM.
`CCN(CC)Cc1nc(Nc2ccc(-c3cnc4cc(F)ccn34)c3c2C(=O)NC3)ccc1[C@H]1CCOC1` [I-510, (R)-7-((6-((diethylamino)-methyl)-5-(tetrahydrofuran-3-yl)pyridin-2-yl)amino)-4-(7-fluoroimidazo [1,2-a]pyridin-3-yl)isoindolin-1-one]: the IC50 is less than 100 nM.
As to `Cn1ccc2c(-c3ccc(Nc4ccc(N5CC6(CC(O)C6)C5)cn4)c4c3CNC4=O)ccnc21` [I-297, 7-((5-(6-hydroxy-2-azaspiro[3,3]heptan-2-yl)pyridin-2-yl)amino)-4-(1-methyl-1H-pyrrolo[2,3-b]pyridin-4-yl)isoindolin-1-one], the IC50 was less than 100 nM.
Under `CN1CC[C@]12CCN(c1cccc(Nc3cnc(-c4ccnc5c4ccn5C)c4c3C(=O)NC4)n1)C2` [I-615, (R)-7-((6-(1-methyl-1.6-diazaspiro[3,4]octan-6-yl)pyridin-2-yl)amino)-4-(1-methyl-1H-pyrrolo[2,3-b]pyridin-4-yl)-2,3-dihydro-1H-pyrrolo[3,4-c]pyridin-1-one] stands 100 to 1000 nM.
To `CN(C)Cc1nc(Nc2cnc(-c3ccnc4c3ccn4C)c3c2C(=O)NC3)ccc1O[C@H]1CCOC1` [I-806, (S)-7-((6-((dimetlnlamino)-methyl)-5-((tetrahydrofur-an-3-yl)oxy)pyridin-2-yl)amino)-4-(1-methyl-1H-pyrrolo[2,3-b]pyridin-4-yl)-2,3-dihydro-1H-pyrrolo[3,4-c]pyridin-1-one] belongs less than 100 nM.
In the case of `O=C1NCc2c(-c3cnc4cnccn34)ccc(Nc3ccc(N4CCOC(CO)C4)cn3)c21` (stereo not shown) [I-358, 7-((5-(2-(hydroxymeth-yl)morpholino)-pyridin-2-yl)amino)-4-(imidazo[1,2-a]pyrazin-3-yl)isoindolin-1-one], the IC50 was less than 100 nM.
